Assay results as given in patent publication US20230257385A1, “SALT AND SOLID FORMS OF TABERNANTHALOG” (priority 2021, published 2023).
Structures can show the parent of a compound that is named as a salt. Where two headings read alike, the source gives them in different places.

Experiments:
[1] = Thermocycling of the monofumarate salt (Experiment Reference 9); type: physicochemical; conditions: for XRPD (moist pellet): form (pattern) of wet pellet after thermocycling; for crystal form change following dry: moist pellet vs oven dried pellet after thermocycling, ✓ / x; for XRPD crystallinity (oven dried): tabernanthalog monofumarate salt thermocycled between 20° C. and peak T (75% of solvent b.p.), solvent, input and number of cycles per sample reference
Experimental: The tabernanthalog monofumarate salt (Pattern #1, 75 mg, 1 wt) was weighed out in to 4 separate vials and the corresponding solvents (750 μl, 10 vol) from Table 89 were charged.
The suspensions underwent constant amplitude thermocycling at +0.5° C./min up to 75% of the relevant solvent b.p. and −0.5° C./min down to 20° C. The thermocycle was repeated 5 times for 9-A (Experiment Reference 9-Sample Reference A) to 9-D (Experiment Reference 9-Sample Reference D) prior to working up the samples, analyzed the by XRPD (wet and dry). 9-E (Experiment Reference 9-Sample Reference E) and 9-F (Experiment Reference 9-Sample Reference F) were subjected to 10 cycles and 9-G (Experiment Reference 9-Sample Reference G) to 35 cycles.
Thermocycling in different solvents can promote the formation of alternative polymorphic forms. The tabernanthalog monofumarate salt (Pattern #1), was heated and cooled between 20° C. and 75% of the relevant solvent b.p. at 0.5° C./minute, for 5 consecutive cycles; a 10-minute dwell was incorporated at each inflection. Thermocycling is ripening technique, that encourages particle size enlargement and promotes the evolution of the API into a stable phase. […] The products were analyzed both wet and dry to determine if form changes had occurred, all products were consistent with previously encountered patterns, and by DSC none of the products were single phase.

[2] = cited from earlier work
[3] = Stability examination of supplied monofumarate material at 40° C./75% RH (Example 5, Experiment Reference 2); type: physicochemical
[4] = Dynamic vapour sorption (DVS) of selected salts (Example 8); type: physicochemical
Experimental: DVS: The moisture sorption properties of the feed API were analyzed by DVS Intrinsic instrument (Surface Measurement System). Approximately 20-50 mg of API was weighed on an aluminum pan and loaded into the instrument equilibrated at 25° C. The sample was allowed to equilibrate under dry atmosphere (0% relative humidity) for 60 minutes before increasing the humidity from 0% to 30% at 5% step increment and from 30% to 90% at 10% step increment. A desorption cycle was also applied from 90% to 30% (10% step) and from 30% to 0% (5% decrement). A rate of change in mass per time unit (dm/dt) of 0.002%/min was set as the equilibrium parameter. Kinetic and isotherm graphs were calculated.

[5] = Equilibrium humidity evaluation 75% RH/40° C., 10 days (Example 8, Experiment 6); type: physicochemical
Experimental: The experimental procedure that accompany this experiment is provided in Section G.ii.
All forms were maintained under constant equilibrium humidity (75% RH). XRPD, DSC, TGA, PLM and ^1H NMR analyses were performed on the absorbents at t=5 d and t=10 d, to confirm their physical fates and to determine the extent of residual solvent exchange or sequestration.
100 mg portions of Tabernanthalog salts ([…]) were placed in the relevant open vials. The powders were finely divided and distributed evenly over the base of the vial, such that equal material coverage across the panel was observed. These samples were then maintained 40° C. under 75% RH. The samples were sub-sampled at intervals of 5 and 10 days and analyzed by ^1H NMR, HPLC, XRPD, DSC, TGA and PLM, for evidence of phase change or chemical degradation.

[6] = counter ion (acid), theoretical pKa value

For `COc1ccc2c3c([nH]c2c1)CCN(C)CC3.O=C(O)/C=C/C(=O)O` [Pattern 9-A], the “XRPD (moist pellet)” value [1] was “Incoherent”, the “crystal form change following dry” value [1] was “✓” and the “XRPD crystallinity (oven dried)” value [1] was 82.1%.
In the case of `O=C[C@H](O)[C@@H](O)[C@H](O)[C@H](O)C(=O)O` [D-Glucuronic acid], the “pKa1” value [2, 6] is given as 3.2 and the pKa1 ([2]; counter ion of the salt screen) is given as 3.20.
In the case of (−)-L-Malic acid, the “pKa1” value [2, 6] is listed as 3.5, the “pKa2” value [2, 6] is listed as 5.1 and the pKa1 ([2]; counter ion of the salt screen) is listed as 3.50. The pKa2 ([2]; counter ion of the salt screen) was 5.10.
With `COc1ccc2c3c([nH]c2c1)CCN(C)CC3.O=C(O)/C=C/C(=O)O` [Tabernanthalog fumarate (CAT8931)] the “HPLC (% area)” value ([3]; 2-A, open-necked, wide vial at 75% RH/40° C., t = 2 w) was 97.26 % area, the “HPLC (% area)” value ([3]; 2-A, open-necked, wide vial at 75% RH/40° C., t = 3 w) was 97.01 % area and the “HPLC (% area)” value ([3]; 2-A, open-necked, wide vial at 75% RH/40° C., t = 4 w) was 97.98 % area. For the same compound, the “HPLC (% area)” value ([3]; 2-A, open-necked, wide vial at 75% RH/40° C., t = 5 w) was 97.34 % area, the “HPLC (% area)” value ([3]; 2-B, sealed PK0056 electrostatic bags at 75% RH/40° C., t = 2 w) was 97.44 % area and the “HPLC (% area)” value ([3]; 2-B, sealed PK0056 electrostatic bags at 75% RH/40° C., t = 3 w) was 97.02 % area. For the same compound, the “HPLC (% area)” value ([3]; 2-B, sealed PK0056 electrostatic bags at 75% RH/40° C., t = 4 w) was 98.38 % area, the “HPLC (% area)” value ([3]; 2-B, sealed PK0056 electrostatic bags at 75% RH/40° C., t = 5 w) was 97.54 % area and the “HPLC (% area)” value ([3]; input batch, before exposure) was 97.64 % area.
For `CCS(=O)(=O)O` [Ethane sulfonic acid], the “pKa1” value [2, 6] is given as 2.05.
In the case of `O=C(O)CO` [Glycolic acid], the “pKa1” value [2, 6] is given as 3.3 and the pKa1 ([2]; counter ion of the salt screen) is given as 3.30.
For `CCS(=O)(=O)O` [Ethanesulfonic acid], the pKa1 ([2]; counter ion of the salt screen) is listed as −2.10 and the pKa2 ([2]; counter ion of the salt screen) is listed as −1.50.
For `COc1ccc2c3c([nH]c2c1)CCN(C)CC3.O=C(O)/C=C/C(=O)O` [Pattern 9-E], the “XRPD (moist pellet)” value [1] was “Pattern #2c” and the “XRPD crystallinity (oven dried)” value [1] was 77.1%.
For `O=S(=O)(O)CCS(=O)(=O)O` [Ethane-1,2-disulfonic acid], the pKa1 ([2]; counter ion of the salt screen) is listed as −2.10 and the pKa2 ([2]; counter ion of the salt screen) is listed as −1.50.
In the case of `COc1ccc2c3c([nH]c2c1)CCN(C)CC3.O=C(O)/C=C/C(=O)O` [Pattern 9-G], the “XRPD (moist pellet)” value [1] is reported as “Pattern #2c” and the “XRPD crystallinity (oven dried)” value [1] is reported as 81.1%.
For `COc1ccc2c3c([nH]c2c1)CCN(C)CC3.O=C(O)/C=C/C(=O)O` [Pattern 9-C], the “XRPD (moist pellet)” value [1] was “Pattern #8” and the “XRPD crystallinity (oven dried)” value [1] was 72.8%.
For `COc1ccc2c3c([nH]c2c1)CCN(C)CC3.O=C(O)/C=C/C(=O)O` [Pattern 9-B], the “XRPD (moist pellet)” value [1] was “Pattern #1” and the “XRPD crystallinity (oven dried)” value [1] was 73.6%.
For `COc1ccc2c3c([nH]c2c1)CCN(C)CC3.O=C(O)C(O)C(O)C(=O)O` [tabernanthalog tartrate salt], the DVS sorption/desorption isotherm ([4]; 0 to 90 to 0% RH, 25° C., dm/dt 0.002%/min) was “hygroscopic type of isotherm”, the “DVS 0 to 90 to 0% RH (dm/dt <0.002%), mass change” value (shortened to “DVS 0 to 90 to 0% RH … mass change”) ([4]; desorption, 0.0% RH) was 0.02% and the “DVS 0 to 90 to 0% RH … mass change” value ([4]; desorption, 5.0% RH) was 0.03%. For the same compound, the “DVS 0 to 90 to 0% RH … mass change” value ([4]; desorption, 10.0% RH) was 0.04%, the “DVS 0 to 90 to 0% RH … mass change” value ([4]; desorption, 15.0% RH) was 0.07% and the “DVS 0 to 90 to 0% RH … mass change” value ([4]; desorption, 20.0% RH) was 0.08%. The “DVS 0 to 90 to 0% RH … mass change” value ([4]; desorption, 25.0% RH) was 0.11%, the “DVS 0 to 90 to 0% RH … mass change” value ([4]; desorption, 30.0% RH) was 0.13% and the “DVS 0 to 90 to 0% RH … mass change” value ([4]; desorption, 40.0% RH) was 0.20%. For the same compound, the “DVS 0 to 90 to 0% RH … mass change” value ([4]; desorption, 50.0% RH) was 0.27%, the “DVS 0 to 90 to 0% RH … mass change” value ([4]; desorption, 60.0% RH) was 0.37% and the “DVS 0 to 90 to 0% RH … mass change” value ([4]; desorption, 70.0% RH) was 0.51%. For the same compound, the “DVS 0 to 90 to 0% RH … mass change” value ([4]; desorption, 80.0% RH) was 0.75%, the “DVS 0 to 90 to 0% RH … mass change” value ([4]; desorption, 90.0% RH) was 1.34% and the “DVS 0 to 90 to 0% RH … mass change” value ([4]; sorption, 0.0% RH) was 0.00%. The “DVS 0 to 90 to 0% RH … mass change” value ([4]; sorption, 5.0% RH) was 0.01%, the “DVS 0 to 90 to 0% RH … mass change” value ([4]; sorption, 10.0% RH) was 0.02% and the “DVS 0 to 90 to 0% RH … mass change” value ([4]; sorption, 15.0% RH) was 0.04%. The “DVS 0 to 90 to 0% RH … mass change” value ([4]; sorption, 20.0% RH) was 0.05%, the “DVS 0 to 90 to 0% RH … mass change” value ([4]; sorption, 25.0% RH) was 0.07% and the “DVS 0 to 90 to 0% RH … mass change” value ([4]; sorption, 30.0% RH) was 0.10%. For the same compound, the “DVS 0 to 90 to 0% RH … mass change” value ([4]; sorption, 40.0% RH) was 0.16%, the “DVS 0 to 90 to 0% RH … mass change” value ([4]; sorption, 50.0% RH) was 0.24% and the “DVS 0 to 90 to 0% RH … mass change” value ([4]; sorption, 60.0% RH) was 0.34%. For the same compound, the “DVS 0 to 90 to 0% RH … mass change” value ([4]; sorption, 70.0% RH) was 0.48%, the “DVS 0 to 90 to 0% RH … mass change” value ([4]; sorption, 80.0% RH) was 0.72% and the “DVS 0 to 90 to 0% RH … mass change” value ([4]; sorption, 90.0% RH) was 1.34%. For the same compound, the “change in chemical purity (trended HPLC)” value ([5]; 75% RH/40° C., after 10 days) was “largest decrease in chemical purity”, the “water uptake / hydrate formation (TGA, DSC)” value ([5]; 75% RH/40° C., t=5 d and t=10 d) was “no significant water absorption” and the “powder diffraction pattern versus input (form stability)” value ([5]; 75% RH/40° C., t=5 days and t=10 days) was “no significant changes to the powder diffraction pattern”. For the same compound, the “Tabernanthalog RRT = 1.00 (trended HPLC data, chemical purity)” value ([5]; Tartrate salt, input before humidity exposure) was 99.39.
In the case of `O=C(O)[C@@H](O)[C@H](O)[C@H](O)[C@@H](O)C(=O)O` [Galactaric acid], the “pKa1” value [2, 6] is given as 3.1 and the “pKa2” value [2, 6] is given as 3.6.
For `Br` [Hydrobromic acid], the pKa1 ([2]; counter ion of the salt screen) is listed as −9.00.
In the case of `O=C(O)[C@H](O)[C@@H](O)[C@H](O)[C@H](O)CO` [D-Gluconic acid], the “pKa1” value [2, 6] is given as 3.8 and the pKa1 ([2]; counter ion of the salt screen) is given as 3.80.
In the case of `COc1ccc2c3c([nH]c2c1)CCN(C)CC3.O=C(O)/C=C/C(=O)O` [Pattern 9-D], the “XRPD (moist pellet)” value [1] is reported as “Pattern #3” and the “XRPD crystallinity (oven dried)” value [1] is reported as 74.5%.
In the case of `COc1ccc2c3c([nH]c2c1)CCN(C)CC3` [supplied material (Pattern #1), 8-methoxy-3-methyl-1H,2H,3H,4H,5H,6H-azepino[4,5-b]indole fumarate], the “physical and chemical stability” value ([3]; 75% RH at 40° C., open vial and double polyethene bagged, up to 5 w, XRPD, HPLC, TGA, DSC, fumarate) is reported as “no evidence for hydrate formation, chemical degradation or disproportionation”.
For `COc1ccc2c3c([nH]c2c1)CCN(C)CC3.O=C(O)/C=C/C(=O)O` [Pattern 9-F], the “XRPD (moist pellet)” value [1] was “Pattern #2c”, the “crystal form change following dry” value [1] was “✓” and the “XRPD crystallinity (oven dried)” value [1] was 82.3%.
